Test results from patent US20240226155A1, “Methods and Products for Reducing HIV Reservoirs” (The Regents of the University of California, priority 2023, published 2024).
“Also recorded” adds a separate entry of the source.

Tests used:
barcoded HIV NL-HABC = experiment: Kick and kill: SUW133 and NK cells in NL-HABC-infected mice on ART, then ART interruption; format: in vivo, TKO-BLT mice
Protocol: To determine whether combining a robust LRA with NK cells would effectively diminish the viral reservoir, as NK cells might eliminate cells induced to express virus due to the LRA activity, the following was performed. BLT mice were infected with NL-HABC, followed by ART to halt productive infection (FIG. 21, FIG. 64). Once mice were suppressed on ART, a subset of mice received a single intraperitoneal injection of 2 μg of SUW133 per mouse to reverse latency, followed by an intravenous injection of 5×10^6 allogeneic human NK cells eight hours later. Reactivation and killing of activated infected cells was allowed to occur while the mice were maintained on ART. ART was then discontinued, and mice were concurrently administered one more intravenous injection of 5×10^6 NK cells. A subset of control mice received SUW133, but no NK cell injections. All remaining control mice received DMSO as a vehicle control instead of SUW133. A subset of the mice receiving DMSO also received NK cell injections. Plasma viral loads were monitored after ART interruption for 12.1 weeks (FIG. 22). In these experiments, TKO-BLT mice, which can be robustly infected with HIV and are less susceptible to GVHD compared to NSG-BLT, were used and allowed monitoring the mice after ART interruption for a longer interval.
RNA was extracted from the barcoded virus supernatant using QIAamp Viral RNA Mini Kit (Qiagen) and from cells using RNeasy MiniKit (Qiagen). cDNA was generated using SuperScript IV First-Strand Synthesis Kit (Invitrogen). The same amount of input RNA that was used for viral load measurement was also used for cDNA synthesis for barcode analysis. The barcode region was amplified by hemi-nested PCR using Phusion High-Fidelity DNA Polymerase (ThermoFisher Scientific). Each RNA molecule was tagged with a Primer ID using methods in the art. Primer ID removal and cDNA purification was performed using an Purelink Quick PCR Purification Kit (Invitrogen) and methods in the art. […] Deep sequencing was performed with Illumina HiSeq3000 PE150. Sequencing depth was 10-fold higher than viral genome copies. Raw sequencing reads were de-multiplexed using the six-nucleotide ID. Sequencing error within the barcode region was corrected by filtering out low quality reads (quality score<30) and un-matched base-pairs between forward and reverse reads. PrimerIDs were used to correct sequencing errors. The frequency of Primer ID reads followed a bi-modal distribution (FIG. 53). The Primer IDs were filtered using the frequency cutoff between the Poisson distribution of errors and normal distribution of real Primer IDs. For each Primer ID, the most frequently observed barcode was called. Similar barcodes were then grouped into clusters. […]

HIV = conditions: cited from earlier work

C=C1C[C@H]2C[C@]3(O)O[C@H](C[C@@H](O)CC(=O)O[C@@H](CO)C[C@@H]4C/C(=C\C(=O)OC)[C@H](OC(=O)CCCCCCC)[C@@](O)(O4)C(C)(C)/C=C/[C@@H](C1)O2)C[C@H](OC(C)=O)C3(C)C [SUW133]
delay to rebound after ART interruption (Kaplan-Meier, log-rank) (barcoded HIV NL-HABC; combination vs other groups (P=0.012 vs DMSO, 0.0037 vs SUW133, 0.09 vs NK), single agents vs DMSO (P=0.59, 0.47)): did not demonstrate a significant delay in rebound
mean unique barcodes per mouse (barcoded HIV NL-HABC; deep sequencing of rebounding viral RNA, DMSO alone 4.7): 4.1
CD69 expression on peripheral CD4+ T cells in the blood (barcoded HIV NL-HABC; five days after administration of SUW133): significant increase; also recorded: significantly elevated
rebound viremia during the lengthened interval of ART interruption (barcoded HIV NL-HABC; monitored about 12 weeks): eventually rebound; also recorded: rebounded
replication-competent virus from splenocytes in ex vivo cultures (HIV; SUW133-treated mice, prior studies): generated replication-competent virus
delay of rebound viremia after ART interruption (HIV; SUW133 alone, prior studies): up to two to four weeks
time of maximal CD69 expression on CD4+ T cells in vivo (HIV; post-SUW133 injection, previous report): approximately one to two days
time CD69 can be detected on CD4+ T cells in vivo (HIV; post-injection, previous report): up to nine days
CD4+ T cell activation and latency reversal in vivo (HIV; single administration): activated CD4^+ T cells and reversed latency in vivo
